# Reference: patent US11214803B2, “Modulators of YAP1 expression” (Ionis Pharmaceuticals, Inc., priority 2019, dated 2022)
# Strand notation (5' to 3'): a small letter for the sugar, then the base; units joined by * are phosphorothioate-linked, units joined directly phosphodiester-linked; [ ] holds rarer units or linkages, { } end groups; capitals alone tell only the bases. k = constrained ethyl (cEt); [5mC] = 5-methylcytosine; d = 2'-deoxy (DNA)
# Tested on: Yap1 mRNA
# Experiment: Antisense inhibition of human Yap1 in A-431 cells by cEt gapmers, single dose (Example 4, RTS4814)
# Format: cell-based
# Settings: Table 14; A-431 cells, 5,000 cells per well, free uptake, 2,000 nM, approximately 48 hours; RTS4814; normalized to RIBOGREEN; Yap1 mRNA relative to untreated control; * = targets amplicon region of primer probe set
# Procedure, shortened: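 Values are % UTC: Yap1 mRNA by quantitative RT-PCR, normalized to RIBOGREEN total RNA. Cells were exposed ~48 h to 2,000 nM oligonucleotide without transfection. Oligonucleotides were 16-nucleoside gapmers with three cEt nucleosides per wing, ten-deoxy gap, P=S linkages throughout.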
row,Substance,YAP1 (% UTC)
1,1075616 (kG*kT*kA*dA*dA*dA*d[5mC]*d[5mC]*dG*dA*dT*dT*dT*kT*kT*k[5mC]; antisense) [Compound 1075616],46
2,1075584 (kA*kA*kT*dA*dA*dT*dT*dG*dA*d[5mC]*d[5mC]*dT*dA*kG*k[5mC]*kA; antisense) [Compound 1075584],57
3,1076320 (k[5mC]*kA*kT*dT*dA*dA*d[5mC]*d[5mC]*dT*d[5mC]*dA*d[5mC]*d[5mC]*k[5mC]*kA*kT; antisense) [Compound 1076320],52
4,1076160 (kT*kT*kA*dT*dA*d[5mC]*dT*dA*dG*dT*dA*d[5mC]*dG*kG*k[5mC]*kA; antisense) [Compound 1076160],20
5,1074592 (antisense kG*kG*kA*dG*d[5mC]*dA*dA*dG*dT*d[5mC]*dT*dT*dG*kT*kA*kA) [Compound 1074592],23
6,1075456 (antisense kT*kT*kA*d[5mC]*dG*dA*dA*dA*dT*dG*dT*dT*dT*kA*kG*kT) [Compound 1075456],61
7,1075328 (k[5mC]*kT*k[5mC]*dG*d[5mC]*dA*dA*dA*dG*d[5mC]*d[5mC]*dT*d[5mC]*kT*kT*k[5mC]; antisense) [Compound 1075328],21
8,1074848 (kG*kT*kT*dA*dT*dG*dA*dT*dA*dG*dG*d[5mC]*dA*k[5mC]*kA*k[5mC]; antisense) [Compound 1074848],11
9,1076352 (kG*kA*kT*dA*dA*d[5mC]*d[5mC]*d[5mC]*dT*dG*dA*dA*dA*k[5mC]*kA*kA; antisense) [Compound 1076352],37
10,1076032 (kT*kA*kT*dA*dA*dT*dT*dT*d[5mC]*d[5mC]*d[5mC]*dT*dG*kA*kT*k[5mC]; antisense) [Compound 1076032],105
11,1074912 (antisense kA*kT*k[5mC]*d[5mC]*d[5mC]*dG*dA*dG*dT*dG*dG*dG*d[5mC]*kT*kA*kA) [Compound 1074912],85

# Same assay, conditions: Table 15; A-431 cells, 5,000 cells per well, free uptake, 2,000 nM, approximately 48 hours; RTS4814; normalized to RIBOGREEN; Yap1 mRNA relative to untreated control; * = targets amplicon region of primer probe set
row,Substance,YAP1 (% UTC)
1,1074465 (kA*kA*kT*d[5mC]*dT*dA*dT*dA*dT*dT*dA*dG*dA*kG*kT*kA; antisense) [Compound 1074465],44
2,1074593 (antisense kA*kG*kG*dA*dG*d[5mC]*dA*dA*dG*dT*d[5mC]*dT*dT*kG*kT*kA) [Compound 1074593],6
3,1076321 (k[5mC]*kA*kA*dT*dA*dT*d[5mC]*dA*d[5mC]*dT*dT*dG*dG*kG*k[5mC]*k[5mC]; antisense) [Compound 1076321],63
4,1076065 (k[5mC]*kT*kT*dT*dA*dG*dT*dA*dA*d[5mC]*dA*d[5mC]*dG*kA*kA*kT; antisense) [Compound 1076065],36
5,1076193 (kT*kT*kA*dA*dT*dA*d[5mC]*dA*d[5mC]*dA*dG*dG*dT*kT*k[5mC]*k[5mC]; antisense) [Compound 1076193],29

# Same assay, conditions: Table 16; A-431 cells, 5,000 cells per well, free uptake, 2,000 nM, approximately 48 hours; RTS4814; normalized to RIBOGREEN; Yap1 mRNA relative to untreated control cells
row,Substance,YAP1 (% UTC)
1,1074562 (antisense kG*kA*kA*dT*dT*d[5mC]*d[5mC]*dA*dA*dT*d[5mC]*dG*dA*kG*kA*k[5mC]) [Compound 1074562],30
2,1075170 (antisense kA*k[5mC]*kT*dA*dA*dA*dA*dT*d[5mC]*d[5mC]*d[5mC]*d[5mC]*dA*kA*kG*kG) [Compound 1075170],94
3,1075586 (kT*kA*kT*dT*dA*dG*d[5mC]*dA*d[5mC]*d[5mC]*dT*dG*dG*kG*kT*kA; antisense) [Compound 1075586],64
4,1075394 (kT*k[5mC]*kT*dT*dA*dA*d[5mC]*d[5mC]*dT*dA*dT*dG*d[5mC]*k[5mC]*kA*kA; antisense) [Compound 1075394],27
5,1074722 (antisense kA*kG*kG*dA*dA*dG*dA*dT*d[5mC]*dT*d[5mC]*d[5mC]*dA*kT*kA*kT) [Compound 1074722],57
6,1075874 (k[5mC]*kT*kT*dA*dA*d[5mC]*dA*dA*d[5mC]*d[5mC]*d[5mC]*dT*dA*k[5mC]*kG*kA; antisense) [Compound 1075874],113

# Same assay, conditions: Table 17; A-431 cells, 5,000 cells per well, free uptake, 2,000 nM, approximately 48 hours; RTS4814; normalized to RIBOGREEN; Yap1 mRNA relative to untreated control cells
row,Substance,YAP1 (% UTC)
1,1074339 (antisense kA*k[5mC]*kT*dG*dG*dA*dT*dT*dT*dT*dG*dA*dG*kT*k[5mC]*k[5mC]) [Compound 1074339],31
2,1074659 (antisense k[5mC]*kT*kA*dA*dA*dA*d[5mC]*dT*d[5mC]*d[5mC]*dA*dT*d[5mC]*kT*kG*k[5mC]) [Compound 1074659],12
3,1075491 (antisense kG*kA*k[5mC]*dG*dG*dA*dA*dG*dT*dT*dG*d[5mC]*dA*kA*kG*kG) [Compound 1075491],93
4,1076291 (kG*kA*kT*dT*dA*dA*dT*dG*dG*dT*dG*dG*d[5mC]*kA*kT*kT; antisense) [Compound 1076291],4
5,1076003 (kA*kA*kT*dT*dT*dA*dA*dT*dG*dG*d[5mC]*dT*dT*kG*k[5mC]*kA; antisense) [Compound 1076003],8
6,1075651 (kT*kA*kT*dA*dT*dT*dA*d[5mC]*dA*dA*dT*d[5mC]*d[5mC]*k[5mC]*kA*kG; antisense) [Compound 1075651],57
7,1074595 (antisense kT*kA*kG*dA*dA*dG*dT*dA*dG*dG*dA*dG*d[5mC]*kA*kA*kG) [Compound 1074595],4
8,1074563 (antisense kT*kG*kA*dA*dT*dT*d[5mC]*d[5mC]*dA*dA*dT*d[5mC]*dG*kA*kG*kA) [Compound 1074563],4
9,1074947 (antisense kT*k[5mC]*k[5mC]*dA*dA*dA*dA*d[5mC]*d[5mC]*d[5mC]*dT*dT*dT*kG*kG*kT) [Compound 1074947],99
10,1075683 (k[5mC]*kT*kG*dA*dA*dA*dA*dA*dG*dT*dT*dA*dT*kG*k[5mC]*k[5mC]; antisense) [Compound 1075683],56

# Same assay, conditions: Yap1 mRNA remaining as percent of untreated control; 3-10-3 cEt gapmers; A-431 cells; Table 36
row,Substance,YAP1 (% UTC)
1,1074646 (antisense kA*kA*kA*dT*dT*dG*dA*dA*dG*dG*dG*d[5mC]*d[5mC]*kA*kA*kA) [compound 1074646],39
2,1074934 (antisense k[5mC]*kA*kG*dG*dA*dG*dA*d[5mC]*dT*dA*dT*dA*d[5mC]*kA*kA*k[5mC]) [compound 1074934],74
3,1075638 (antisense kA*kT*kT*dA*dA*d[5mC]*d[5mC]*dA*dG*dA*dA*dG*d[5mC]*k[5mC]*kT*kG) [compound 1075638],79
4,1075382 (antisense kA*kT*kT*dA*dT*dT*dA*d[5mC]*d[5mC]*d[5mC]*dT*dA*d[5mC]*kT*k[5mC]*kA) [compound 1075382],33
5,1075350 (antisense kG*kA*kT*dT*dA*dA*dA*dG*d[5mC]*dT*d[5mC]*dA*dT*kT*kG*kA) [compound 1075350],62
6,1074870 (kG*kT*kA*dA*dG*dT*dA*d[5mC]*d[5mC]*dT*dA*dA*d[5mC]*kA*kT*kA; antisense) [compound 1074870],20
7,1074582 (DNA kT*kA*kA*dA*d[5mC]*d[5mC]*dA*d[5mC]*dT*dA*dT*dA*dA*kA*kG*k[5mC]; antisense) [compound 1074582],18
8,1075158 (k[5mC]*kG*kG*d[5mC]*dA*dA*dA*dA*dA*d[5mC]*dA*dA*dA*kA*kT*k[5mC]; antisense) [compound 1075158],76
9,1074838 (kA*kT*kA*dA*d[5mC]*dA*dA*d[5mC]*dA*dT*dG*d[5mC]*dT*kT*kG*k[5mC]; antisense) [compound 1074838],9
10,1075030 (antisense kT*kT*kA*dA*dT*dA*dT*dT*d[5mC]*dG*dA*d[5mC]*dA*k[5mC]*kT*kG) [compound 1075030],37
11,1076214 (kA*kT*k[5mC]*d[5mC]*dT*dA*dT*dA*d[5mC]*dA*dT*dT*dA*kA*kG*kA; antisense) [compound 1076214],67
12,1076182 (k[5mC]*kT*kA*dT*dA*dA*dT*dT*dA*dG*d[5mC]*d[5mC]*dA*kA*k[5mC]*k[5mC]; antisense) [compound 1076182],15

# Same assay, conditions: Yap1 mRNA remaining as percent of untreated control; 3-10-3 cEt gapmers; A-431 cells; Table 37
row,Substance,YAP1 (% UTC)
1,1076247 (kG*kA*k[5mC]*d[5mC]*dA*dA*dA*dA*d[5mC]*dA*dG*d[5mC]*dT*k[5mC]*kT*kT; antisense) [compound 1076247],11
2,1075863 (antisense k[5mC]*k[5mC]*kT*dA*dA*dT*dA*dA*d[5mC]*dT*dT*dG*dT*k[5mC]*kT*kA) [compound 1075863],71
3,1075927 (antisense kG*k[5mC]*kT*dT*dA*dA*dA*dA*dT*d[5mC]*dA*dT*dG*kT*kA*kG) [compound 1075927],32
4,1074743 (kG*kA*kA*dA*dG*dG*dA*d[5mC]*dT*d[5mC]*dT*dT*dA*kG*kG*kT; antisense) [compound 1074743],16
5,1075415 (antisense k[5mC]*kA*kT*dT*dA*dA*dA*dT*dG*dA*d[5mC]*dA*dG*k[5mC]*k[5mC]*kT) [compound 1075415],52
6,1074807 (k[5mC]*k[5mC]*kA*dT*dA*dT*dA*dG*dA*dA*dG*dG*d[5mC]*kA*kT*kG; antisense) [compound 1074807],75
